Experimental data published in article PMC3750051, “A New Class of Rhomboid Protease Inhibitors Discovered by Activity-Based Fluorescence Polarization” (PLoS ONE, 2013).

Experiments:
E. coli rhomboid GlpG [1] = target: T1, E. coli rhomboid GlpG (Escherichia coli, UniProt P09391); experiment: biochemical
GlpG [2] = target: T2, GlpG (Escherichia coli, UniProt P09391); experiment: Substrate cleavage of fluorescently labeled TatA (Providencia stuartii) by GlpG; assay type: biochemical, E. coli; conditions: 100 µM compound, 500 nM GlpG, 83 nM TAMRA-labeled TatA, overnight at 37°C
Description: The TatA protein from Providencia stuartii was used for generation of a fluorescence substrate. The substrate was constructed to include a His6-tag for purification as well as a LPRTG-motif for sortase-mediated protein labeling. It was expressed and purified as described above. For the labeling reaction, 33 µM of the unlabeled substrate, 50 µM sortase A from S. aureus and 500 µM of the label NH2-Ala-Ala-Ahx-Lys(TAMRA) were added together in labeling buffer (50 mM Tris, pH 7.5 containing 150 mM NaCl, 10 mM CaCl2 and 0.05% (w/v) DDM) and allowed to react o/n at 37°C in the dark. […] This allowed removal of sortase and unlabeled substrate by incubation of the labeling reaction with Ni-NTA agarose beads. The supernatant was applied to a ZEBA-spin desalting column (VWR; MW-cut-off 7 kDa) to remove excess label. 40 µL of a 500 nM rhomboid solution (in 50 mM HEPES (pH 7.4) containing 10% (v/v) glycerol and 0.0125% (w/v) DDM) were incubated for 30 min at 37°C shaking with 100 µM of the compounds or DMSO. Then fluorescently labeled rhomboid substrate TatA (Providencia stuartii) was added to a final concentration of 83 nM. The cleavage reaction was allowed to take place o/n at 37°C shaking in the dark and stopped by the addition of 4× SDS-sample buffer. 10 µl of each reaction (10 ng protein per lane) was applied to a 15% SDS-polyacrylamide gel and run for 1 h 10 min at 200V. The gel was visualized on a fluorescence scanner (Typhoon, Trio +).

GlpG [3] = target: T2, GlpG; experiment: Gel-based competitive activity-based probe profiling (competitive ABPP); assay type: biochemical, E. coli; conditions: for blocking of EK2 labeling of GlpG (gel-based competitive ABPP): 100 µM compound, 45 nM GlpG, 1 µM probe EK2
Description: For the competitive activity-based probe profiling (competitive ABPP) experiment 45 nM of rhomboid in 20 µl of 50 mM HEPES (pH 7.4) containing 10% glycerol and 0.0125% DDM were incubated for 30 min at 37°C shaking with 100 µM of the compound or an equal volume of DMSO. Then either probe EK2 or FP-R was added to a final concentration of 1 µM and incubated for further 30 min at 37°C shaking in the dark. The labeling reaction was stopped with 4× SDS-sample buffer and 10 µl of the reaction (15 ng protein per lane) was applied to a 15% SDS-polyacrylamide gel and run for 1 h 10 min at 200V. The gel was visualized on a fluorescence scanner (Typhoon, Trio +).

E. coli rhomboid GlpG [4] = target: T1, E. coli rhomboid GlpG; assay type: biochemical; conditions: 100 µM compound; for FluoPol signal, % of wild-type signal: 30 min preincubation, 75 nM FP-R, polarization at 4 h, GlpG WT = 100%, duplicate screens
bovine chymotrypsin [5] = target: T3, bovine chymotrypsin (Bos taurus, UniProt P00766); experiment: IC50 against chymotrypsin; assay type: biochemical; conditions: for IC50: bovine chymotrypsin, read-out: apparent IC50 against chymotrypsin; for potency against GlpG compared with trypsin and chymotrypsin: comparison of apparent IC50 values
bovine trypsin = target: T4, bovine trypsin (Bos taurus, UniProt P00760); experiment: IC50 against trypsin; assay type: biochemical; conditions: read-out: apparent IC50 against trypsin
T4 sequence (P00760 24-246): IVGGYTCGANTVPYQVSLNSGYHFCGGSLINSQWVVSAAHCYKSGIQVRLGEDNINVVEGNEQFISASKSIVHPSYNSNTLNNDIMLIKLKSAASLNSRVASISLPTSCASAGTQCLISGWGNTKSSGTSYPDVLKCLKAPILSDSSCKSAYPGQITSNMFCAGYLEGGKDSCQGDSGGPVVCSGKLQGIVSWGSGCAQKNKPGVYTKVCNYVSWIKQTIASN

GlpG [6] = target: T2, GlpG; assay type: biochemical, E. coli; conditions: 36 nM GlpG WT or S201A mutant, 100 µM compound, click reaction with TAMRA-azide
GlpG from E. coli = GlpG from E. coli (Escherichia coli, UniProt P09391); assay type: biochemical; conditions: 1 µM probe, 45 nM GlpG WT or inactive S201A mutant, 30 min
bovine chymotrypsin [7] = target: T3, bovine chymotrypsin; set-up: method as in PMID 23359682; conditions: cited from earlier work

T1 sequence (P09391 whole entry): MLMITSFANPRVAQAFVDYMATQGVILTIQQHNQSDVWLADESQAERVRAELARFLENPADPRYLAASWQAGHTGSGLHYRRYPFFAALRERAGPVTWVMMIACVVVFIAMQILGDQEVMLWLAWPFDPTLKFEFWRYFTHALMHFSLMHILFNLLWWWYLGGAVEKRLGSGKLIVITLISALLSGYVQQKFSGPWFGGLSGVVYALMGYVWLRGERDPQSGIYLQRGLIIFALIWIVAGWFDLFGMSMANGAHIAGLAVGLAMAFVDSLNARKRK
T2 sequence (P09391 whole entry): as above
Sequence of GlpG from E. coli (P09391 whole entry): as above

Molecule | IC50 (E. coli rhomboid GlpG [1]) [µM] | inhibition of substrate cleavage (GlpG [2]) | blocking of EK2 labeling of GlpG (gel-based competitive ABPP) (GlpG [3]) | further results
CCCCOc1oc(=O)c2cc(N)ccc2c1Cl [Compound 3] | 0.4 ± 0.1 | able to block | able to block | FluoPol signal, % of wild-type signal (E. coli rhomboid GlpG [4]): slightly negative
O=c1oc(OCCBr)c(Cl)c2ccc([N+](=O)[O-])cc12 [Compound 12] | 8.4 ± 1.7 | able to block | able to block | FluoPol signal, % of wild-type signal (E. coli rhomboid GlpG [4]): slightly negative
Nc1ccc2c(Cl)c(OCCCCCc3ccccc3)oc(=O)c2c1 [Compound 2] | 0.75 ± 0.21 | able to block | able to block | 
Nc1ccc2c(Cl)c(OCCc3cn(Cc4ccccc4)nn3)oc(=O)c2c1 [Compound 27] | 3.1 ± 0.91 | able to block | able to block | 
C#CCCC[C@@H]1OC(=O)[C@H]1CCCC [Compound 31] | 26 ± 5.8 | able to block | able to block | IC50 (bovine chymotrypsin [5]): > 50 µM; potency against GlpG compared with trypsin and chymotrypsin (bovine chymotrypsin [5]): higher potency against GlpG than against trypsin and chymotrypsin; IC50 (bovine trypsin): > 150 µM; tandem activity-based labeling of GlpG (fluorescent gel band) (GlpG [6]): Wild-type GlpG, but not the inactive S201A mutant was visualized
vibralactone [reference compound] |  |  |  | activity against rhomboid (E. coli rhomboid GlpG [4]; FluoPol ABPP screen): inactive
O=c1oc(OCCCCCc2ccccc2)c(Cl)c2ccc([N+](=O)[O-])cc12 [Compound 10] | 5.2 ± 0.8 | able to block | able to block | FluoPol signal, % of wild-type signal (E. coli rhomboid GlpG [4]): slightly negative
CN(C)c1ccc2c(-c3ccc(C(=O)NCCCn4cc(CCOc5oc(=O)c6cc(N)ccc6c5Cl)nn4)cc3C(=O)[O-])c3ccc(=[N+](C)C)cc-3oc2c1 [EK2] |  |  |  | activity-based labeling of GlpG by the probe (GlpG from E. coli): labeled wild-type (WT) GlpG from E. coli, but not the inactive S201A mutant
Nc1ccc2c(Cl)c(OCCc3ccccc3)oc(=O)c2c1 [S016, reference compound] | 1.1 ± 0.56 |  |  | potency against chymotrypsin compared with GlpG (bovine chymotrypsin [7]): more potent against chymotrypsin than against GlpG; prevention of probe labeling of GlpG WT by pre-inhibition (GlpG [3]; 100 µM inhibitor, 30 min, 1 µM probe EK2 or FP-R): Labeling was also prevented
C#CCCCC(=O)OCC1=CC2(CC=C(C)C)C(=O)OC2C1 (stereo not shown) [Compound 43] | 44 ± 10 | able to block | able to block | IC50 (bovine chymotrypsin [5]): > 50 µM; potency against GlpG compared with trypsin and chymotrypsin (bovine chymotrypsin [5]): higher potency against GlpG than against trypsin and chymotrypsin; IC50 (bovine trypsin): > 150 µM; tandem activity-based labeling of GlpG (fluorescent gel band) (GlpG [6]): Wild-type GlpG, but not the inactive S201A mutant was visualized
CCCCOc1oc(=O)c2cc([N+](=O)[O-])ccc2c1Cl [Compound 11] | 5.5 ± 0.55 | able to block | able to block | 
